Laboratory results: US20100144819A1, “Synergistic Methods for Control of Pests” (FMC A[…]. LTD., priority 2008, published 2010)

Tested on: German cockroach (Blatella germanica)
Experiment: German cockroach mortality on treated filter paper
Format: in vivo, Blattella germanica
Settings: 24 h
From the text: The presence of a synergistic effect between the two active ingredients is established with the aid of the Colby equation (see Colby, S. R., “Calculating Synergistic and Antagonistic Responses of Herbicide Combinations”, Weeds 1967, 15, pg 20-22): E=X+Y−(XY/100).
Using the method of Colby, the presence of asynergistic interaction between two active ingredients is established by first calculating the expected activity, ‘E’, of the mixture based on activities of the two components applied alone. If ‘E’ is lower than the observed activity, synergy is present. In the equation above, ‘X’ is the percentage control observed when bifenthrin applied alone at rate ‘x’. The ‘Y’ term is percentage control observed when fipronil applied alone at rate ‘y’. The equation calculates ‘E’, the expected activity of the mixture of ‘X’ at rate ‘x’ with ‘Y’ at rate ‘y’ if their effects are strictly additive and no interaction has occurred.
The compositions of the present invention were tested for German cockroach (Blatella germanica) activity in the following manner.
Test solutions were made by dissolving technical grade bifenthrin and fipronil in acetone to provide appropriate rates of application of bifenthrin and fipronil alone, as well as combinations of bifenthrin and fipronil. The active ingredient concentrations tested were from 50 parts per million (0.05 mg of active ingredient/mL or 0.05 g/L) to 500 parts per million (0.5 mg of active ingredient/mL or 0.5 g/L), four replicates per rate. In a fume cabinet, one milliliter of a test solution was applied to a 9 cm Whatman® 2 qualitative filter paper using a calibrated pipette. The application started at the center of the filter paper with individual drops being applied in an outward circular motion so that the entire filter paper was uniformly treated. Acetone only (one mL) was applied in the same manner to provide an untreated control (UTC). The treated filter papers were allowed to dry for two hours. The dried, treated or untreated filter paper was placed into a plastic Petri dish and ten late instar, healthy and active German cockroaches (Blattella germanica) were momentarily immobilized using carbon dioxide and then placed onto the filter paper. The lid of each Petri dish was put on to contain the cockroaches. The Petri dishes were maintained at a temperature of 25° C. to 30° C. at ambient relative humidity out of direct sunlight. German cockroach mortality was assessed after 24 hours by counting the number of alive and the number of knocked down/dead cockroaches.
In order to compare the pesticidal effectiveness of the individual and combination treatments the LC 50 and LC 90 values (lethal concentration in ppm that would effectively knock down/kill 50% or 90% of the test pests) were calculated. In calculating the LC values for the various mixtures of bifenthrin and fipronil, probit analysis was conducted on the fipronil concentration of the mixture. […] The values calculated from the data of Table 1 are in Table 1A below.

[1] = probit analysis of Table 1 data, mixtures as bifenthrin:fipronil

N#Cc1nn(-c2c(Cl)cc(C(F)(F)F)cc2Cl)c(N)c1[S+]([O-])C(F)(F)F [Fipronil, (5-amino-[2,6-dichloro-4(trifluoromethyl)phenyl]-4-[(1R,S)-(trifluoromethyl)sulfinyl]-1H-pyrazole-3-carbonitrile]
% Observed Control (50 ppm (0.05 mg/mL)): 22.5%
Mortality Rep 1 dead/alive (50 ppm (0.05 mg/mL)): 7/3
Mortality Rep 2 dead/alive (50 ppm (0.05 mg/mL)): 1/9
Mortality Rep 3 dead/alive (50 ppm (0.05 mg/mL)): 0/10
Mortality Rep 4 dead/alive (50 ppm (0.05 mg/mL)): 1/9
% Observed Control (100 ppm (0.1 mg/mL)): 42.5%
Mortality Rep 1 dead/alive (100 ppm (0.1 mg/mL)): 6/4
Mortality Rep 2 dead/alive (100 ppm (0.1 mg/mL)): 3/7
Mortality Rep 3 dead/alive (100 ppm (0.1 mg/mL)): 4/6
Mortality Rep 4 dead/alive (100 ppm (0.1 mg/mL)): 4/6
% Observed Control (250 ppm (0.25 mg/mL)): 100%
Mortality Rep 1 dead/alive (250 ppm (0.25 mg/mL)): 10/0
Mortality Rep 2 dead/alive (250 ppm (0.25 mg/mL)): 10/0
Mortality Rep 3 dead/alive (250 ppm (0.25 mg/mL)): 10/0
Mortality Rep 4 dead/alive (250 ppm (0.25 mg/mL)): 10/0
% Observed Control (500 ppm (0.5 mg/mL)): 100%
Mortality Rep 1 dead/alive (500 ppm (0.5 mg/mL)): 10/0
Mortality Rep 2 dead/alive (500 ppm (0.5 mg/mL)): 10/0
Mortality Rep 3 dead/alive (500 ppm (0.5 mg/mL)): 10/0
Mortality Rep 4 dead/alive (500 ppm (0.5 mg/mL)): 10/0
LC 50 [1]: 102 ppm
LC 90 [1]: 179 ppm
